Reference: patent US20110212467A1, “INHIBITORS OF dUTPase” (UNIVERSITY OF SOUTHERN CALIFORNIA, priority 2008, published 2011)
pIC50: −log10 of the molar value.

Legend:
dUTPase = molecular target: T1, dUTPase (Homo sapiens, UniProt P33316); assay: dUTPase activity assay, % inhibition of dUTPase catalysis at 100 μM (Table 1); format: biochemical; conditions: fixed concentration of 100 μM
T1 sequence (P33316 94-252 limits assumed): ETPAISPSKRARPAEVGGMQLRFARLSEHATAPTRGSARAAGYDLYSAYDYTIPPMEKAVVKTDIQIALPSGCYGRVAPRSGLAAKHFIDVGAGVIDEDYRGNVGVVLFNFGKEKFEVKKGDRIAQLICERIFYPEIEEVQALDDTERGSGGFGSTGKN
Procedure: dUTPase Activity Assay Cells were harvested and protein isolated and quantified as per Western blotting. Twenty-five μg of total protein was normalized to a 20 μl reaction volume with PBS/protease inhibitor. Relative dUTPase activity was determined as previously described (9) and is expressed as fold-change compared to an identical transfection in the presence of 0.5 μg/ml dox.
These molecules were tested in our dUTPase activity assay at an initial 100 μM in vitro to determine their percentage inhibition of dUTPase catalysis relative to un-inhibited control. Table 1 illustrates the docking fitness scores of the top four active compounds and their ability to inhibit dUTPase activity.

[1] = test system: MCF-7 human breast cancer cell line; assay: Growth inhibition by MTS assay in MCF-7 cells, alone and combined with FUdR; format: cell-based; conditions: MCF-7, MTS assay; for pIC50: Homo sapiens, MCF7, read-out: concentration required to inhibit 50% cell growth; for combined drug effect with FUdR on growth inhibition: compound fixed at 62.5 μM with increasing concentrations of FUdR
Procedure: FIG. 9. Inhibitors of dUTPase induce growth arrest in the MCF-7 human breast cancer cell line. (A) MCF-7 cells were exposed to increasing concentrations of two novel dUTPase inhibitory lead compounds and growth inhibition was analyzed by MTS assay. […] (B) DU-203 at a fixed concentration of 62.5 μM was combined with increasing concentrations of FUdR and the combined drug effect analyzed by MTS assay and the degree of synergy determined using the methods of Chou and Talalay. […] BB-123 enhances the growth arrest of MCF-7 cells when combined with FUdR. (C) BB-123 at a fixed concentration of 62.5 μM was combined with increasing concentrations of FUdR and the combined drug effect analyzed as described previously.
Inhibitors of dUTPase induce growth arrest in the MCF-7 human breast cancer cell line. […] These growth inhibitory effects are consistent with the inhibition of dUTPase and the resultant accumulation of dUTP and uracil misincorporation during DNA replication. To test the specificity of these inhibitors, DU-203 and BB-123 were combined with the inhibitor of thymidylate synthase (TS), FUdR.

MCF-7 pTet-off cells [2] = assay: Growth inhibition assay in MCF-7 pTet-off cells; format: cell-based; conditions: Homo sapiens, MCF7; MCF-7 cells, 72 h
Procedure: Growth Inhibition Assay MCF-7 pTet-off cells were transfected in the presence or absence of 0.5 μg/ml of dox and growth inhibition was measured as previously (9) using CellTiter 96® AQueous One Solution (Promega, Madison, Wis.). Cells were exposed to increasing concentrations of 5-FU for 72 h. Absorbance was measured using a SpectraMax 190 microplate reader (Molecular Devices, Sunnyvale, Calif.) at 490 nm, with drug treated cells compared to untreated controls set at 100%. Statistical significance was determined using a two-tailed unpaired Student's t-test (Graphpad, San Diego, Calif.).
We subsequently investigated the effects of dUTPase overexpression on growth inhibition following exposure of MCF-7 pTet-off cells to increasing concentrations of 5-FU.

MCF-7 pTet-off cells [3] = assay: dUTP accumulation assay; format: cell-based, human; conditions: 24 h; for reduction in dUTP pool expansion with dUTPase overexpression versus basal dUTPase: 10 μM 5-FU or 1 μM FUdR
Procedure: FIG. 5. Elevated dUTPase Protects Breast Cancer Cells from 5-FU. (A) Western blot and analysis of dUTPase expression and corresponding dUTPase enzyme activity assay following 72 h transfection with pTre-Tight:DUT-N in the presence and absence of 0.5 μg/m1 dox, Histogram bars represent the mean ±SEM of corresponding Western lysates analyzed in duplicate. (B) Analysis of dUTP accumulation in pTre-Tight:DUT-N-transfected MCF-7 psTet-off cells with basal (+dox) and induced (−dox) dUTPase expression and treated with 10 μM 5-FU, 1 μM FUdR and taxol (paclitaxel) 5 nM for 24 h, % dUTP was calculated as described in ‘Materials and Methods’, Histogram bars represent the mean ±SEM of two independent treatments, †=dUTP not detected. (C) Growth inhibition measured by MTS assay in pTre-Tight:DUT-N-transfected MCF-7 pTet-off cells following treatment with increasing concentrations (in μM) of 5-FU for 72 h. Histogram bars represent the mean ±SEM of three independent treatments, *=p<0.05, **=p<0.01.
dUTP Accumulation Assay MCF-7 pTet-off cells were treated with specified concentrations of 5-FU, FUdR and taxol for indicated times, harvested, and 3×10^6 cells were analyzed for nucleotide pool content using the assay developed by Sherman and Fyfe (10) modified to detect levels of TTP and dUTP by pre-incubating extracts with recombinant dUTPase (9, 11). Radioactive incorporation, measured in the presence of dUTPase represented the TTP pool, while untreated extracts represented both the dUTP and TTP pools. dUTP accumulation was determined by subtracting the results of extracts treated with dUTPase from untreated extracts and presented as % accumulation in histogram format. Statistical significance was determined using a two-tailed unpaired Student's t-test (Graphpad, San Diego, Calif.).
Elevated dUTPase Protects Breast Cancer Cells from 5-FU. […] A tetracycline-repressible dUTPase expression construct and overexpressed dUTPase with an approximate 4-fold increase in expression and enzymatic activity in transfected tet-inducible MCF-7 pTet-off cells (FIG. 5A) was utilized. […]

DPD = molecular target: T2, DPD (Homo sapiens, UniProt Q12882); conditions: cited from earlier work
T2 construct: host or cells: liver
T2 sequence (Q12882 4-1025): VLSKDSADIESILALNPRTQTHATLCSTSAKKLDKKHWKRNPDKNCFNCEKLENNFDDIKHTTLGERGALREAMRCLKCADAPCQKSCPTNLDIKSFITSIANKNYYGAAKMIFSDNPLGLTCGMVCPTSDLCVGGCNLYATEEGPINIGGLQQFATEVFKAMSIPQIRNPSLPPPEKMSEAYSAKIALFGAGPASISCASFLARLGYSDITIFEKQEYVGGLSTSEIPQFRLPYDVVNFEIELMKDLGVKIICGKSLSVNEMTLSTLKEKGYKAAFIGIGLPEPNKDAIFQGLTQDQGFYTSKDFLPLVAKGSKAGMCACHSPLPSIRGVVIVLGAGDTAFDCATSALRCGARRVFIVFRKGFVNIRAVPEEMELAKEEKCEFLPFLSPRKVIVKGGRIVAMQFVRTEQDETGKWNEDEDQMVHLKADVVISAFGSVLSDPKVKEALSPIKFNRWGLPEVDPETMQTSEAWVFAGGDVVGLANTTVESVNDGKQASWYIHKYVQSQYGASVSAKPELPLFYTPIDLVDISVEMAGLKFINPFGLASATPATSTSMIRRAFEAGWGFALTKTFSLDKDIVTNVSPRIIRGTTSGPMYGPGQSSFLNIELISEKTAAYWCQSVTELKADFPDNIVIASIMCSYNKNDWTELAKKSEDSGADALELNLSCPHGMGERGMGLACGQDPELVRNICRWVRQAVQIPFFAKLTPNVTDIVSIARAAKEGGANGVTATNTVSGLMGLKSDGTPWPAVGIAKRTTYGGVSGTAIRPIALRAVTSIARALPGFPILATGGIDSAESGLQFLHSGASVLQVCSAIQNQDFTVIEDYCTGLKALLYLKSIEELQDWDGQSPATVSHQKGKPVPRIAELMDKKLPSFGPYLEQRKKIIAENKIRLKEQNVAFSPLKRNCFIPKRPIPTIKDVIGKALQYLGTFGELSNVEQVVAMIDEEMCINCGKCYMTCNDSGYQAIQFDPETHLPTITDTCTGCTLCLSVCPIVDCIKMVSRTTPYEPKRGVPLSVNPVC

advanced breast cancer = conditions: cited from earlier work; for time to progression: capecitabine alone, or lapatinib combined with capecitabine

Q: Which inhibition at 100 µM (dUTPase) does the source give for `CC(=O)CSc1nc2c(c(=O)[nH]c(=O)n2C)n1CC(O)COc1ccccc1C` (centres unmarked) [BB37] here?
A: 34%

Q: Which results are given for `CCc1ccc(N2CN(c3ccc(CC)cc3)CN(c3ccc(CC)cc3)C2)cc1` [BB123]?
A: pIC50 [1]: 4.13; combined drug effect with FUdR on growth inhibition [1]: enhanced growth inhibition at all concentrations tested; combined drug effect with FUdR on growth inhibition ([1]; listed as BB-123): enhanced growth inhibition is observed at all concentrations tested

Q: With `O=c1[nH]cc(F)c(=O)[nH]1` [Compound 5-FU, 5-fluorouracil] as the compound, how does the pIC50 (MCF-7 pTet-off cells [2]) read?
A: < 5.00

Q: And the “reduction in dUTP pool expansion with dUTPase overexpression versus basal dUTPase” value (MCF-7 pTet-off cells [3])?
A: 37%

Q: And the “5-FU degraded by DPD in the liver” value (DPD)?
A: > 80%

Q: Which inhibition at 100 µM (dUTPase) does the source give for `CCCc1ccc(OCC(=O)Nc2ccc(S(=O)(=O)Nc3onc(C)c3C)cc2)cc1` [Du 7] here?
A: 55.7%

Q: With `Cc1cc(C)c(NC(=O)CSc2nc3ccc(NC(=O)CSc4nnc(COc5ccccc5)n4-c4ccccc4)cc3s2)c(C)c1` [Du 44] as the compound, how does the inhibition at 100 µM (dUTPase) read?
A: 28.5%

Q: Which “% dUTPase Inhibition” value (dUTPase) does the source give for `N#Cc1c(N)nc(SCC(=O)c2ccc(F)cc2)c(C#N)c1-c1ccc(OCc2ccccc2)cc1` [Du 202] here?
A: Inactive

Q: With `COc1cc(/C=N/NC(=O)C(Cc2c[nH]c3ccccc23)NC(=O)OCc2ccccc2)cc([N+](=O)[O-])c1O` (centres unmarked) [Du 203] as the compound, how does the pIC50 [1] read?
A: 4.19

Q: What about the “combined drug effect with FUdR on growth inhibition” value [1] of the same compound?
A: enhanced growth inhibition is observed at all concentrations tested

Q: Which “reduction in dUTP pool expansion with dUTPase overexpression versus basal dUTPase” value (MCF-7 pTet-off cells [3]) does the source give for `O=c1[nH]c(=O)n([C@H]2C[C@H](O)[C@@H](CO)O2)cc1F` [FUdR, fluorodeoxyuridine] here?
A: 38%

Q: Which time to progression (advanced breast cancer) does the source give for `CCCCCOC(=O)Nc1nc(=O)n([C@@H]2O[C@H](C)[C@@H](O)[C@H]2O)cc1F` [capecitabine] here?
A: 19.7 weeks

Q: Which time to progression (advanced breast cancer) does the source give for `CS(=O)(=O)CCNCc1ccc(-c2ccc3ncnc(Nc4ccc(OCc5cccc(F)c5)c(Cl)c4)c3c2)o1` [lapatinib] here?
A: 36.9 weeks

Q: And the “improved response rate compared to capecitabine alone” value (advanced breast cancer; combined with capecitabine, ErbB2 positive advanced breast cancer, previously failed multiple lines of therapy)?
A: 12.2%

Q: For `CC(=O)O[C@H]1C(=O)[C@@]2(C)[C@H]([C@H](OC(=O)c3ccccc3)[C@]3(O)C[C@H](OC(=O)[C@H](O)[C@@H](NC(=O)c4ccccc4)c4ccccc4)C(C)=C1C3(C)C)[C@]1(OC(C)=O)CO[C@@H]1C[C@@H]2O` [paclitaxel], which dUTP detection (MCF-7 pTet-off cells [3]; taxol 5 nM, basal or induced dUTPase expression) is on record?
A: no detection of dUTP
